Results from BindingDB's records for doi:10.1007/s002100000312 (Biocentre Niederursel, 2000).

What was measured:
P2X purinoceptor 1 [1] = target: T1, P2X purinoceptor 1 (Rattus norvegicus, UniProt P47824)
T1 sequence (P47824 whole entry): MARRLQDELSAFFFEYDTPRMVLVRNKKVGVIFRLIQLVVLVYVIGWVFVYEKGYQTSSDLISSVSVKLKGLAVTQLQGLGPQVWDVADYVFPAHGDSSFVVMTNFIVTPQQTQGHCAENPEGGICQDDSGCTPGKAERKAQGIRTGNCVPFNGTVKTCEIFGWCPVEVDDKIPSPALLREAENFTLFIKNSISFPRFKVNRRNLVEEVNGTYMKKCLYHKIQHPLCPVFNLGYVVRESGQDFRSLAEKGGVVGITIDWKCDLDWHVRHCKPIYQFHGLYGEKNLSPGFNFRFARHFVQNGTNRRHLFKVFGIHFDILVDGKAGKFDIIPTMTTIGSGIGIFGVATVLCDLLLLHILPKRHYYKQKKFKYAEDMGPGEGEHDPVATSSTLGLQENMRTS

P2X purinoceptor 4 = target: T2, P2X purinoceptor 4 (Homo sapiens, UniProt Q99571)
T2 sequence (Q99571 whole entry): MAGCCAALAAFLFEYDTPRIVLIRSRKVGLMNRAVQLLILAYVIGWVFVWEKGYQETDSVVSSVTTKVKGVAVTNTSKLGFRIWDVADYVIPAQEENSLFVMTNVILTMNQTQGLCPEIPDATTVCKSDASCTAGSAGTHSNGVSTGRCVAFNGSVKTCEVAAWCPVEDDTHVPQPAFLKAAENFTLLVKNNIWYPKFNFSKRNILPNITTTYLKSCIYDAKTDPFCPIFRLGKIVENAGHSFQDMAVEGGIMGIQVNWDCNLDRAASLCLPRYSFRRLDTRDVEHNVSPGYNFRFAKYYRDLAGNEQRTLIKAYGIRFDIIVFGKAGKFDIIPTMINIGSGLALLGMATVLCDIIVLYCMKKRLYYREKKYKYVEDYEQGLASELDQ

P2X purinoceptor 2 = target: T3, P2X purinoceptor 2 (Rattus norvegicus, UniProt P49653)
T3 sequence (P49653 whole entry): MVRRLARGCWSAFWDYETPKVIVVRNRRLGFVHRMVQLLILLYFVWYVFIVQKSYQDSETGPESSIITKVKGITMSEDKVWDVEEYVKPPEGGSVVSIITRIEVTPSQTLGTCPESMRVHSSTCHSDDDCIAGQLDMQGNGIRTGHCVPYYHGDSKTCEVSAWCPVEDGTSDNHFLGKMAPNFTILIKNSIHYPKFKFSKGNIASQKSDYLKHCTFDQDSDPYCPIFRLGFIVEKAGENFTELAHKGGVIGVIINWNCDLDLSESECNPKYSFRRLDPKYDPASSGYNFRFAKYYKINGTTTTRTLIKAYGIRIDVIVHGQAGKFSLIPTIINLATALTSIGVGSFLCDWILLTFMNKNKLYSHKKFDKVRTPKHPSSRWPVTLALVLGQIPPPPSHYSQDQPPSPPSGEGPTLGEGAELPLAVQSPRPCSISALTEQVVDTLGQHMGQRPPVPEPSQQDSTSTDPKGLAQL

P2X purinoceptor 3 = target: T4, P2X purinoceptor 3 (Rattus norvegicus, UniProt P49654)
T4 sequence (P49654 whole entry): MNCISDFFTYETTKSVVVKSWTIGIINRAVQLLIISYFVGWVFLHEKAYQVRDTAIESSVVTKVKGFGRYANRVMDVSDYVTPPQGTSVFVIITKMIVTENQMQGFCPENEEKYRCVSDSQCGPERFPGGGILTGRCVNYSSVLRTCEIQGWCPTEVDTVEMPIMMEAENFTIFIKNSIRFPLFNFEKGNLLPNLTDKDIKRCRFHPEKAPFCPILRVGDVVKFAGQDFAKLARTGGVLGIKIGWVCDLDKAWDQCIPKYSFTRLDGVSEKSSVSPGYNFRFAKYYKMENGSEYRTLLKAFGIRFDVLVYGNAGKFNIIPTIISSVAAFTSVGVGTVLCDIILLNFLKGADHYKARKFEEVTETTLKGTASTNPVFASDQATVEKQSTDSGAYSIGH

P2X purinoceptor 1 [2] = target: T5, P2X purinoceptor 1 (Homo sapiens, UniProt P51575)
T5 sequence (P51575 whole entry): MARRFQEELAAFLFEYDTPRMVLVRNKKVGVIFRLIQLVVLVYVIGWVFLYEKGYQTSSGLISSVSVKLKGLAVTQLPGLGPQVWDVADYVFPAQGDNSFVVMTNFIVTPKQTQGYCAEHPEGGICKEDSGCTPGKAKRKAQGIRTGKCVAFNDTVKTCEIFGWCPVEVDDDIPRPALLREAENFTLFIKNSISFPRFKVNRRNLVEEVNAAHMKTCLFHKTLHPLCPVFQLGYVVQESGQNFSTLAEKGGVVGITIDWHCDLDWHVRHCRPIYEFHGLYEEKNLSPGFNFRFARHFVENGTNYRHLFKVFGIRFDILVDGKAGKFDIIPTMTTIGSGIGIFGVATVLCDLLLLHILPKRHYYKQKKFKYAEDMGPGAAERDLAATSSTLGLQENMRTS

P2X purinoceptor 7 = target: T6, P2X purinoceptor 7 (Homo sapiens, UniProt Q99572)
T6 sequence (Q99572 whole entry): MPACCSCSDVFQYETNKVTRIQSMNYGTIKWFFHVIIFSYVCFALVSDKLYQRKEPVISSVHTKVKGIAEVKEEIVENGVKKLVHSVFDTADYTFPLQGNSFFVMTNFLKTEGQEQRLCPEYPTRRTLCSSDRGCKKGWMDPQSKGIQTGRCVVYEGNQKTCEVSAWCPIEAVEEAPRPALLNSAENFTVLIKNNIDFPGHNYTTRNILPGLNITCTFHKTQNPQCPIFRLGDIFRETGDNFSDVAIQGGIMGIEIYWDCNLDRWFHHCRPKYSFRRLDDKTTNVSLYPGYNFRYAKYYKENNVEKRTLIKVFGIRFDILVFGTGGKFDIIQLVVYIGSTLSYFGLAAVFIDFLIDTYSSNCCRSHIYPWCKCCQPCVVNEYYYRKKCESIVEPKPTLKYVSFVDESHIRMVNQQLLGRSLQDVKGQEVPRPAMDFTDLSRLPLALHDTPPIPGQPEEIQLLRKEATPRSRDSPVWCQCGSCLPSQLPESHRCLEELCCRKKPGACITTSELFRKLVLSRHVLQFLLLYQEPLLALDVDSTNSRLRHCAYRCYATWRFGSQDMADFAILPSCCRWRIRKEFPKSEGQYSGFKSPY

| Structure (SMILES) | Ki (P2X purinoceptor 1 [1]) [nM] | Ki (P2X purinoceptor 4) [µM] | Ki (P2X purinoceptor 2) [µM] | Ki (P2X purinoceptor 3) [nM] | Ki (P2X purinoceptor 1 [2]) [nM] | Ki (P2X purinoceptor 7) [µM] |
| --- | --- | --- | --- | --- | --- | --- |
| O=C(Nc1cccc(Nc2ccc(S(=O)(=O)O)c3cc(S(=O)(=O)O)cc(S(=O)(=O)O)c23)c1)Nc1cccc(Nc2ccc(S(=O)(=O)O)c3cc(S(=O)(=O)O)cc(S(=O)(=O)O)c23)c1 [NSC_5311313] | 1000 | > 10 | > 10 | 1000 | – | – |
| O=C(Nc1ccc(C(=O)Nc2ccc(C(=O)Nc3ccc(S(=O)(=O)O)c4cc(S(=O)(=O)O)cc(S(=O)(=O)O)c34)cc2)cc1)Nc1ccc(C(=O)Nc2ccc(C(=O)Nc3ccc(S(=O)(=O)O)c4cc(S(=O)(=O)O)cc(S(=O)(=O)O)c34)cc2)cc1 [CAS_5311315] | 1000 | > 10 | > 10 | 1000 | 1000 | > 10 |
| Cc1ccc(C(=O)Nc2ccc(S(=O)(=O)O)c3cc(S(=O)(=O)O)cc(S(=O)(=O)O)c23)cc1NC(=O)c1cccc(NC(=O)Nc2cccc(C(=O)Nc3cc(C(=O)Nc4ccc(S(=O)(=O)O)c5cc(S(=O)(=O)O)cc(S(=O)(=O)O)c45)ccc3C)c2)c1 [suramin] | 50 | 5 | > 10 | > 10000 | – | – |
